For series [1], the system named is iPSC-RPE. As to the kind of experiment: Trans-epithelial electrical resistance (TER) of treated iPSC-RPE monolayer. Format: cell-based, human. To be noted: for TER relative to cutoff / epithelial barrier integrity, in words: cutoff of 400 ohm*cm^2; for trans-epithelial electrical resistance (TER): fully mature iPSC-RPE, minimum threshold 400 Ωcm^2, DMSO around 1100 Ωcm^2. The procedure: (§1) Different techniques were used to study RPE morphologic features.
At this point the trans-epithelial electrical resistance (TER) was assayed to confirm the quality of differentiation and examine the effect of drugs on tight junction integrity. The minimum threshold of 400 Ωcm^2 for epithelial resistance per unit area is used to determine good batches of differentiation.
Trans-epithelial electrical resistance (TER) is a measure of the tightness of the monolayer. The tighter the monolayer, the healthier are the cells in the monolayer. A cutoff of 400 ohm*cm^2 was used to exclude cells with low TER. […] The range specifies 90% of the data.

Series [2] deals with iPSC-RPE. Description: Acid phosphatase activity in lysates of treated RPE cells (p-nitrophenyl phosphate). Conditions: compared with DMSO- or endo-IWR-1-treated cells. Format: cell-based, human. As to the method: Acid phosphatase has higher expression in the macula (Boulton et al., The British Journal of Ophthalmology 78 (2), 125-9, doi: 10.1136/bjo.78.2.125 (1994)). This enzyme has an important role in photoreceptor outer segment digestion. The acid phosphatase activity was determined in cells treated with DMSO, AGN 193109 or endo-IWR-1. For these studies, RPE cells were lysed in distilled water to extract the enzyme. The lysates were then incubated with p-nitrophenyl phosphate, a phosphatase substrate that turns yellow when dephosphorylated by acid phosphatase. The color of the solution was measured with a spectrophotometer to estimate the enzyme activity.

For series [3], the system named is iPSC-RPE. Description: Pigmentation (brightfield), gross (H&E) and fine (TEM) morphology of treated iPSC-RPE. The format is cell-based, human. Conditions: for gross cell morphology: H&E staining; for gross cell morphology / pigmentation levels / fine intracellular structure: AGN 193109 0.2 μM, endo-IWR-1 4 uM; for pigmentation levels: brightfield imaging, compared with DMSO; for fine intracellular structure: transmission electron microscopy; for effect on iPSC-RPE health / healthy RPE phenotype: verified by TER, brightfield, H&E and TEM.
Description: as §1
Brightfield imaging was used to determine RPE pigmentation defects, while hematoxylin and eosin (H&E) staining was valuable to inspect gross morphologic alterations of the monolayer. A section of transwell membrane was cut and mounted on a glass slide for brightfield imaging. Pigmentation levels were preserved after ENDO-1-IWR and AGN 193109 treatments as compared to DMSO-treated iPSC-RPE.
(§2) Finally, transmission electron microscopy (TEM) was used to detect fine morphological alterations, whereas scanning electron microscopy (SEM) was essential to study modifications in apical processes structures. […] In DMSO-treated iPSC-RPE we found both types of apical processes, petal and finger-like.
AGN 193109 was used at 0.2.μM and endo-IWR-1 at 4 uM. Both agents were dissolved in DMSO, so that the final concentration of DMSO was not more than 0.1%. The final concentration of DMSO control was 0.1%. The compounds were added in RPE maturation medium until cells were mature. Gross cell morphology was also analyzed (FIGS. 15B, 15E, and 15F, left image) to detect possible abnormalities. Fine intracellular structures were examined for alterations with transmission electron microscopy (TEM, FIGS. 15B, 15E, and 15F, right image).

Series [4] concerns iPSC-RPE. Description: Scanning electron microscopy of apical processes of treated iPSC-RPE. Format: cell-based, human. Conditions: for type of apical processes enriched: SEM, DMSO control shows both petal and finger-like types. The procedure: FIG. 11. Defining petal (undulated) and finger-like apical processes. The transversal section of apical processes was measured to precisely define their shape. Petal-like apical processes, obtained by treating RPE cells with AGN 193109, have an average transversal length of 1.68 μm (length min 0.5, max 4 μm) and width of 0.20 μm (width min 0.1, max 1 μm). The petal-like apical processes are also wavy along their length. The width of the undulation ranges from 0.2 to 2 μm. Finger-like apical processes, obtained by treating RPE cells with endo-IWR-1, are cylindrical and have the same average transversal length and width of 0.23 μm (min 0.1, max 1 microns). An example of how measurements of the apical processes was done is shown for each type of apical processed.
as §1, §2

The subject of series [5] is iPSC-RPE. Description: iPSC-RPE cell area morphometry (REShAPE) after compound treatment. The format is cell-based. Conditions: compared with macular (P1) and peripheral (P3) human RPE and the DMSO control. The procedure: FIG. 13. Testing different concentrations of AGN 193109 and endo-IWR-1 to reproduce macular (P1), central (P2) and peripheral (P3) cells. A range of concentrations of AGN 193109 and endo-IWR-1 were tested that could be used to reproduce macular, central and peripheral RPE populations (labeled P1, P2 and P3, respectively). Population 1 (P1, macular cells) can be reproduced with […] of AGN 193109. Population 3 (P3, peripheral) can be reproduced with 1 mM-4 mM of endo-IWR-1. A gradient of AGN 193109 and endo-IWR-1 could be used to replicate human RPE population 2 (P2, central)—central RPE cells. In one example, this can be reproduced with 25 nM-50 nM of AGN 193109 and 0.1 mM-0.5 mM of endo-IWR-1. Boxplots relative to DMSO, P1, P2 and P3 are plotted on the left side of the graph as a reference for cell size comparison. Five concentrations were tested for AGN 193109 and endo-IWR-1.
Screening of Compound Library and Imaging: 115 drugs targeting various developmental pathways or cytoskeletal stressors were selected to form a new developmental library of compounds. The drugs are either activators or inhibitors of various signaling pathways and target proteins at different levels of the signaling cascades. For each drug, an initial concentration was selected, and adjustments made to the concentration of each drug. The assays were performed on iPSC-derived committed RPE. For every drug, the concentration was lowered if toxicity was detected or increased if there was no evident effect on cell morphology in comparison to control. The list of compounds tested can be found in Table 1. The high-content screening was performed in 384-well plates (cat #6057300, Perkin Elmer) using a range of 3 different concentrations (3×, 1×, 0.3×). All drugs were reconstituted in dimethyl sulfoxide (DMSO, cat #D2650, Sigma) and 40 ul of each drug was aliquoted in triplicate in a 384-well master plate. Serial dilutions with RPEGM were then performed to obtain the final desired working concentrations and the final plates were stored at −80° C. […]

The next series has as its system iPSC-RPE cells. As to the kind of experiment: Phagocytosis test with labelled bovine outer segments, flow cytometry. Conditions: purified bovine outer segments, 4 hours, One-way ANOVA showed no difference. Format: cell-based, human. As to the method:
iPSC-RPE cells were provided purified bovine outer segment (mostly rod photoreceptors) to phagocytose. The outer segments were labelled with a dye that fluoresces when the outer segments are phagocytosed. RPE cells were incubated for 4 hours with outer segments and then analyzed with flow cytometry to measure outer segment ingestion, or put back in the incubator for 20 hours before performing flow cytometry to measure outer segment digestion.
A general note: In flow cytometry, cells or beads pass a laser one at a time.

Entries after “also recorded” stand apart in the source; their conditions may differ.

As to `Cc1ccc(C2=CCC(C)(C)c3ccc(C#Cc4ccc(C(=O)O)cc4)cc32)cc1` [AGN 193109, 4-[2-[5,6-Dihydro-5,5-dimethyl-8-(4-methylphenyl)-2-naphthalenyl]ethynyl]-benzoic acid], in the series with iPSC-RPE [1], the “TER relative to cutoff / epithelial barrier integrity, in words” value is given as “well above the threshold; also recorded: well above this threshold” and the “trans-epithelial electrical resistance (TER)” value is on record as ~1600 Ωcm^2. Besides, in the series on iPSC-RPE [2], the acid phosphatase activity entry was “higher acid phosphatase activity”. For the same molecule, in the series with iPSC-RPE [3], the gross cell morphology result is “no gross morphological alterations were detected; also recorded: nor did they affect gross or fine cell morphology”, the pigmentation levels entry is recorded as “preserved; also recorded: did not alter pigmentation levels”, the fine intracellular structure result is “no fine intracellular structure defects were identified; also recorded: nor did they affect gross or fine cell morphology” and the “effect on iPSC-RPE health / healthy RPE phenotype” value was “not disruptive of iPSC-RPE health; also recorded: did not affect the healthy RPE phenotype”. Moreover, the “type of apical processes enriched” value in the series on iPSC-RPE [4] is listed as “enriched RPE cells with petal-like apical processes (with undulation)”. Also, in the series with iPSC-RPE [4] (transversal section, FIG. 11), the “average transversal width of apical processes” value was 0.20 μm. In addition, the “human RPE population whose cell size is reproduced by treated iPSC-RPE” value in the series on iPSC-RPE [5] was “comparable to the dimension of macular RPE population (P1)”.

Take `O=C(Nc1cccc2cccnc12)c1ccc(N2C(=O)C3C4C=CC(C4)C3C2=O)cc1` (stereo not drawn) [endo-IWR-1, 4-(1,3,3a,4,7,7a-Hexahydro-1,3-dioxo-4,7-methano-2H-isoindol-2-yl)-N-8-quinolinyl-Benzamide]: in the series on iPSC-RPE [1], the “TER relative to cutoff / epithelial barrier integrity, in words” value was “well above the threshold; also recorded: well above this threshold” and the “trans-epithelial electrical resistance (TER)” value is given as ~1200 Ωcm^2. Further, in the series with iPSC-RPE [3], the gross cell morphology result is “nor did they affect gross or fine cell morphology”, the pigmentation levels entry was “did not alter pigmentation levels” and the fine intracellular structure entry is “nor did they affect gross or fine cell morphology”. Besides, in the series on iPSC-RPE [3] (listed as ENDO-1-IWR), the gross cell morphology result is listed as “no gross morphological alterations were detected”, the pigmentation levels result is reported as “preserved”, the fine intracellular structure entry is “no fine intracellular structure defects were identified” and the “effect on iPSC-RPE health / healthy RPE phenotype” value is “not disruptive of iPSC-RPE health; also recorded: did not affect the healthy RPE phenotype”. Besides, in the series with iPSC-RPE [3] (listed as Endo-IWR-1), the pigmentation levels result is listed as “did not alter pigmentation levels”. For the same molecule, the outer segment ingestion entry in the series with iPSC-RPE cells is “ingest (peripheral cells) more outer segments”. Moreover, in the series with iPSC-RPE [4], the “type of apical processes enriched” value is given as “enriched cells with finger-like apical processes”. In addition, the “type of apical processes enriched” value in the series on iPSC-RPE [4] (listed as ENDO-1-IWR) is “all RPE cells were enriched uniquely by finger-like apical processes”. Moreover, in the series on iPSC-RPE [4] (transversal section, FIG. 11), the “average transversal length of apical processes” value worked out at 0.23 μm and the “average transversal width of apical processes” value amounted to 0.23 μm. In the series with iPSC-RPE [5], the “human RPE population whose cell size is reproduced by treated iPSC-RPE” value is on record as “peripheral”. Besides, the “human RPE population whose cell size is reproduced by treated iPSC-RPE” value in the series with iPSC-RPE [5] (listed as ENDO-1-IWR) is recorded as “comparable to cells of peripheral RPE population P3”.

The values are drawn from US20240271089A1, “METHODS TO GENERATE MACULAR, CENTRAL AND PERIPHERAL RETINAL PIGMENT EPITHELIAL CELLS” (THE U.S.A., as represented by the Secretary, Department of …, priority 2021, published 2024).
